Laboratory results taken from US20060189535A1, “Combination treatment using exendins and thiazolidinediones” (priority 2002, published 2006).

Assays:
[1] = tested on: male ZDF rat; assay: Four weeks combination treatment of overtly diabetic male ZDF rats; HbA1c and 24-hour glucose profiles; type: in vivo; details: thiazolidinedione insulin sensitizer x mg/kg oral once daily + Exendin-4(1-39) xx μg/kg s.c. twice daily
Protocol: Synergistic effect of combining thiazolidinedione insulin sensitizer and exendin-4(1-39) on glucose and HbA1c, (glycosylated hemoglobin) in the male ZDF rat.
Male ZDF rats were used in the study. Before treatment start, measurements of glucose and HbA1c were performed. All animals were overtly diabetic at the beginning of the study. Animals were allocated into the following 4 treatment groups: • Group 1: Vehicle-1+Vehicle-2 • Group 2: thiazolidinedione insulin sensitizer, x mg/kg+Vehicle-2 (n=10) • Group 3: Vehicle-1+exendin-4(1-39), xx μg/kg • Group 4: thiazolidinedione insulin sensitizer, x mg/kg+exendin-4(1-39), xx μtg/kg
Thiazolidinedione insulin sensitizer and Vehicle-1 were administered by oral gavage once daily at approx. 07:30. Exendin-4(1-39) and Vehicle-2 were administered subcutaneously twice daily at approx. 07:30 and 14:30.
After four weeks treatment, HbA1c was measured and 24-hour glucose profiles were assessed.
The findings of group 1, 2, 3 and 4 are listed. Delta HbA1c values referring to the numerical difference between the measurement after treatment and the measurement before treatment are calculated. Glucose24 hAUc refers to the total area under the glucose concentration curve during the 24-hour period. A two-way analysis of variance are performed for each parameter and the significance of the interaction term evaluated.

[2] = tested on: dogs; details: injected into dogs; cited from earlier work

Q: For Exendin-4(1-39), which “effect on 24-hour glucose profiles (Glucose 24h AUC, two-way ANOVA interaction term)” value [1] is on record?
A: synergistic (greater than additive) effects

Q: What about the “effect on HbA1c (delta HbA1c, two-way ANOVA interaction term)” value [1] of the same substance?
A: synergistic (greater than additive) effects

Q: And the “insulin release and blood glucose level” value [2]?
A: stimulate insulin release and ensuing lowering of the blood glucose level
